Experimental data: PubChem BioAssay (NCI)
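How tested: cells in 96-well plates exposed to compound for 48 hours at five concentrations. TGI denotes the concentration required for complete inhibition of growth.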

Legend:
Assay in all cases: NCI-60 cell line screen, 48 h
T-47D breast = system: T-47D breast
OVCAR-8 ovarian = system: OVCAR-8 ovarian
MOLT-4 leukemia = system: MOLT-4 leukemia
SK-MEL-2 melanoma = system: SK-MEL-2 melanoma
KM20L2 colon = system: KM20L2 colon
HCT-15 colon = system: HCT-15 colon
NCI/ADR-RES ovarian = system: NCI/ADR-RES ovarian
HOP-92 NSCLC = system: HOP-92 NSCLC
HOP-62 NSCLC = system: HOP-62 NSCLC
NCI-H23 lung = system: NCI-H23 lung
UO-31 renal = system: UO-31 renal
SF-539 CNS = system: SF-539 CNS
SK-MEL-28 melanoma = system: SK-MEL-28 melanoma
COLO 205 colon = system: COLO 205 colon
EKVX NSCLC = system: EKVX NSCLC
DLD-1 colon = system: DLD-1 colon
UACC-62 melanoma = system: UACC-62 melanoma
IGROV1 ovarian = system: IGROV1 ovarian
TK-10 renal = system: TK-10 renal
KM12 colon = system: KM12 colon
HCC-2998 colon = system: HCC-2998 colon
SNB-78 CNS = system: SNB-78 CNS
U251 CNS = system: U251 CNS
HS 578T breast = system: HS 578T breast
MDA-N = system: MDA-N
XF 498 CNS = system: XF 498 CNS
NCI-H460 lung = system: NCI-H460 lung
DU-145 prostate = system: DU-145 prostate
A549 NSCLC = system: A549 NSCLC
K-562 leukemia = system: K-562 leukemia
A498 renal = system: A498 renal
PC-3 prostate = system: PC-3 prostate
SF-295 CNS = system: SF-295 CNS
M14 melanoma = system: M14 melanoma
SW-620 colon = system: SW-620 colon
UACC-257 melanoma = system: UACC-257 melanoma
M19-MEL melanoma = system: M19-MEL melanoma
LOX IMVI melanoma = system: LOX IMVI melanoma
RPMI-8226 leukemia = system: RPMI-8226 leukemia
ACHN renal = system: ACHN renal
786-0 renal = system: 786-0 renal
HL-60(TB) leukemia = system: HL-60(TB) leukemia
HCT-116 colon = system: HCT-116 colon
MDA-MB-231 breast = system: MDA-MB-231 breast
OVCAR-5 ovarian = system: OVCAR-5 ovarian
MALME-3M melanoma = system: MALME-3M melanoma
OVCAR-4 ovarian = system: OVCAR-4 ovarian
BT-549 breast = system: BT-549 breast
RXF 393 renal = system: RXF 393 renal
OVCAR-3 ovarian = system: OVCAR-3 ovarian
SK-MEL-5 melanoma = system: SK-MEL-5 melanoma
DMS 273 small cell lung = system: DMS 273 small cell lung
CAKI-1 renal = system: CAKI-1 renal
SN12C renal = system: SN12C renal
NCI-H522 lung = system: NCI-H522 lung
SNB-19 CNS = system: SNB-19 CNS
LXFL 529 NSCLC = system: LXFL 529 NSCLC
HOP-18 NSCLC = system: HOP-18 NSCLC
DMS 114 small cell lung = system: DMS 114 small cell lung
SNB-75 CNS = system: SNB-75 CNS
MDA-MB-435 = system: MDA-MB-435
NCI-H226 lung = system: NCI-H226 lung
RXF-631 renal = system: RXF-631 renal
CCRF-CEM leukemia = system: CCRF-CEM leukemia
HT29 colon = system: HT29 colon
SK-OV-3 ovarian = system: SK-OV-3 ovarian
SF-268 CNS = system: SF-268 CNS

CCN(CC)CC(=O)O[C@]1(CC)C(=O)OCc2c1cc1n(c2=O)Cc2cc3ccccc3nc2-1
TGI (T-47D breast): 0.404 µM
TGI (OVCAR-8 ovarian): 3.65 µM
TGI (MOLT-4 leukemia): 0.0749 µM
TGI (SK-MEL-2 melanoma): 1.42 µM
TGI (KM20L2 colon): 0.887 µM
TGI (HCT-15 colon): 3.93 µM
TGI (NCI/ADR-RES ovarian): 0.165 µM
TGI (HOP-92 NSCLC): 2.12 µM
TGI (HOP-62 NSCLC): < 0.048 µM
TGI (NCI-H23 lung): 0.13 µM
TGI (UO-31 renal): 0.182 µM
TGI (SF-539 CNS): 0.17 µM
TGI (SK-MEL-28 melanoma): 39.1 µM
TGI (COLO 205 colon): 3.22 µM
TGI (EKVX NSCLC): > 100 µM
TGI (DLD-1 colon): > 100 µM
TGI (UACC-62 melanoma): 0.0261 µM
TGI (IGROV1 ovarian): 1.04 µM
TGI (TK-10 renal): 24.9 µM
TGI (KM12 colon): 0.862 µM
TGI (HCC-2998 colon): 1.28 µM
TGI (SNB-78 CNS): > 100 µM
TGI (U251 CNS): 0.221 µM
TGI (HS 578T breast): > 100 µM
TGI (MDA-N): 1.58 µM
TGI (XF 498 CNS): 2.19 µM
TGI (NCI-H460 lung): 0.129 µM
TGI (DU-145 prostate): 0.21 µM
TGI (A549 NSCLC): 2.37 µM
TGI (K-562 leukemia): 38.3 µM
TGI (A498 renal): 0.256 µM
TGI (PC-3 prostate): > 100 µM
TGI (SF-295 CNS): 1.08 µM
TGI (M14 melanoma): 0.318 µM
TGI (SW-620 colon): 4.33 µM
TGI (UACC-257 melanoma): 1.05 µM
TGI (M19-MEL melanoma): 0.738 µM
TGI (LOX IMVI melanoma): 0.177 µM
TGI (RPMI-8226 leukemia): 1.85 µM
TGI (ACHN renal): 0.146 µM
TGI (786-0 renal): 0.13 µM
TGI (HL-60(TB) leukemia): 0.401 µM
TGI (HCT-116 colon): 0.352 µM
TGI (MDA-MB-231 breast): 31.3 µM
TGI (OVCAR-5 ovarian): 1.43 µM
TGI (MALME-3M melanoma): 2.61 µM
TGI (OVCAR-4 ovarian): 0.62 µM
TGI (BT-549 breast): 1.93 µM
TGI (RXF 393 renal): 0.564 µM
TGI (OVCAR-3 ovarian): 0.947 µM
TGI (SK-MEL-5 melanoma): 0.171 µM
TGI (DMS 273 small cell lung): 0.0304 µM
TGI (CAKI-1 renal): 0.145 µM
TGI (SN12C renal): 1.8 µM
TGI (NCI-H522 lung): 1.44 µM
TGI (SNB-19 CNS): 11.3 µM
TGI (LXFL 529 NSCLC): 3.3 µM
TGI (HOP-18 NSCLC): > 100 µM
TGI (DMS 114 small cell lung): 0.362 µM
TGI (SNB-75 CNS): 0.677 µM
TGI (MDA-MB-435): 0.862 µM
TGI (NCI-H226 lung): 0.23 µM

CCOC(=O)CCn1[nH]c(=O)c(Cl)c(Cl)c1=O
TGI (OVCAR-8 ovarian): > 100 µM
TGI (SK-MEL-2 melanoma): > 100 µM
TGI (KM20L2 colon): > 100 µM
TGI (HCT-15 colon): > 100 µM
TGI (HOP-92 NSCLC): > 100 µM
TGI (HOP-62 NSCLC): > 100 µM
TGI (NCI-H23 lung): > 100 µM
TGI (UO-31 renal): > 100 µM
TGI (SK-MEL-28 melanoma): > 100 µM
TGI (COLO 205 colon): > 100 µM
TGI (EKVX NSCLC): > 100 µM
TGI (DLD-1 colon): > 100 µM
TGI (UACC-62 melanoma): > 100 µM
TGI (IGROV1 ovarian): > 100 µM
TGI (TK-10 renal): > 100 µM
TGI (RXF-631 renal): > 100 µM
TGI (HCC-2998 colon): > 100 µM
TGI (CCRF-CEM leukemia): > 100 µM
TGI (SNB-78 CNS): > 100 µM
TGI (U251 CNS): > 100 µM
TGI (XF 498 CNS): > 100 µM
TGI (NCI-H460 lung): > 100 µM
TGI (A549 NSCLC): > 100 µM
TGI (K-562 leukemia): > 100 µM
TGI (A498 renal): > 100 µM
TGI (SF-295 CNS): > 100 µM
TGI (M14 melanoma): > 100 µM
TGI (SW-620 colon): > 100 µM
TGI (UACC-257 melanoma): > 100 µM
TGI (M19-MEL melanoma): > 100 µM
TGI (LOX IMVI melanoma): > 100 µM
TGI (HT29 colon): > 100 µM
TGI (ACHN renal): > 100 µM
TGI (SK-OV-3 ovarian): > 100 µM
TGI (786-0 renal): > 100 µM
TGI (HL-60(TB) leukemia): > 100 µM
TGI (HCT-116 colon): > 100 µM
TGI (OVCAR-5 ovarian): > 100 µM
TGI (MALME-3M melanoma): > 100 µM
TGI (OVCAR-4 ovarian): > 100 µM
TGI (RXF 393 renal): > 100 µM
TGI (OVCAR-3 ovarian): > 100 µM
TGI (SK-MEL-5 melanoma): > 100 µM
TGI (DMS 273 small cell lung): > 100 µM
TGI (CAKI-1 renal): > 100 µM
TGI (SN12C renal): > 100 µM
TGI (NCI-H522 lung): > 100 µM
TGI (SNB-19 CNS): > 100 µM
TGI (LXFL 529 NSCLC): > 100 µM
TGI (HOP-18 NSCLC): > 100 µM
TGI (SF-268 CNS): > 100 µM
TGI (DMS 114 small cell lung): > 100 µM
TGI (SNB-75 CNS): > 100 µM
TGI (NCI-H226 lung): > 100 µM
